The nature of data set [1]: Dissolution test (JP Dissolution Test Method 2, paddle method). It is filed as physicochemical. The conditions noted are these: JP second fluid 900 ml, paddle 50 rpm, 37° C., about 10 mg based on free form. On the procedure:
The compounds obtained in Examples 22, 24 and 25, free base•Form-I crystal, and the racemate of the compound of Example 3 were subjected to a dissolution test, and the dissolution rate was compared. According to this test method, the amount of dissolution relative to the content of each compound in the test solution is expressed in the dissolution rate (%), which was measured over time.
For the method of adding each compound, the compound (about 10 mg based on free form) was precisely weighed and directly added to a vessel. As the test solution, The Japanese Pharmacopoeia second fluid (900 ml) was used, and the test was performed according to The Japanese Pharmacopoeia Dissolution Test Method 2 (Paddle Method) at 50 rpm. The test temperature was 37° C. After the start of the test, solution for dissolution (10 ml) was taken at suitable times, and a test solution (10 ml) heated to 37° C. was soon carefully added for compensation. The collected solution for dissolution was passed through a filter (DISMIC 13HP PTFE (0.45 μm); Toyo Roshi Kaisha). The filtrate in the early stage (5 ml) was removed, the subsequent filtrate (500 μl) was precisely measured, and the dilution solution (water/acetonitrile/trifluoroacetic acid mixture=500:500:1, 500 μl) was accurately added to give a sample solution.
Separately, about 10 mg of the free base•Form-I crystal was precisely weighed, and a dilution solution (water/acetonitrile/trifluoroacetic acid mixture=500:500:1) was added to 50 ml sharp. This solution (2.5 ml) was precisely measured, and a dilution solution (water/acetonitrile/trifluoroacetic acid mixture=500:500:1) was added to 50 ml sharp. This was used as the standard solution of free base•Form-I crystal (10 μg/ml). The sample solution and the standard solution were measured under the HPLC conditions shown below, the peak areas AT and AS of the free base•Form-I crystal in each solution were measured, and the dissolution rate was determined by the following formula.
The nth dissolution rate (%) of free base•Form-I crystal=Wn/W100%×100 • W1: the first dissolution amount (mg) of free base•Form-I crystal
=(900×AT1)×WS/AS/1000 • Wn: the nth (n>1) dissolution amount (mg) of free base•Form-I crystal
={900×ATn+10×(AT1+AT2 . . . +ATn−1)}×WS/AS/1000 • W100%: cast amount (mg) of drug substance • Ws: collected amount (mg) of free base•Form-I crystal standard product • As: peak area of free base•Form-I crystal in standard solution • AT1: peak area of free base•Form-I crystal in sample solution by the first sampling • ATn: peak area of free base•Form-I crystal in sample solution by the nth sampling. • For racemate, the dissolution rate was calculated based on the total value of S form and R form. […]

A short description of data set [2]: Evaluation of biological availability (bioavailability) in rat. It is filed as in vivo. The conditions noted are these: for AUC: rat, fasted female SD rats, plasma. On the procedure:
Free base•Form-I crystal was administered to female SD rats fasted from the day before the experiment and the plasma concentration was measured under the following conditions. As a result, the areas under blood concentration-time curve (AUC) of the drug after intravenous administration and oral administration are as shown in Table 1.
• Dosing formulation: 0.5 mg/ml in aqueous physiological saline. • Dose: 1 mg/2 ml/kg • Administration method: bolus administration from the tail vein Collection of blood samples: About 0.1-0.2 mL of blood was taken from the cervical vein at 3 min, 10 min, 30 min, 1 hr, 2 hr, 4 hr and 6 hr after administration. The blood was centrifuged, and the plasma was separated.
• Dosing formulation: 2 mg/ml suspension adjusted by gradually adding aqueous hydroxypropylmethylcellulose solution to the compound of the present invention thoroughly triturated in an agate mortar. • Dose: 10 mg/5 ml/kg • Administration method: Forcible administration into the stomach • Collection of blood samples: About 0.1-0.2 mL of blood was taken from the cervical vein at 30 min, 1 hr, 2 hr, 4 hr, 6 hr, 8 hr and 24 hr after administration. The blood was centrifuged, and the plasma was separated.
The plasma concentration of the administered compound was measured by LC-MS/MS.
LC conditions • Column: Capcellpak C18 UG-120 (2.0φ mm×50 mm, S-5 μm, Shiseido Co., Ltd.) • Mobile phase: acetonitrile • Flow rate: 0.25 mL/min • Column temperature: room temperature • Auto sampler temperature set to: 25° C. • Gradient setting: • 0 min→0.6 min:25%→25% • 0.6 min→3.6 min:25%→75% • 3.6 min→6 min:75%→75% • 6 min→6.1 min:75%→25% • 6.1 min→9.5 min:25%→25% • MS/MS conditions • Ionization method: ESI • Capillary temperature: 350° C. • Sheath gas pressure: 80 psi • Spray voltage: 4.5 kV.
The plasma concentration of the racemate was measured by a similar method, and the biological availability was calculated and found to be 20%.

For data set [3], the system named is C5a stimulated neutrophil. The data set is described as follows: Production of reactive oxygen species in C5a-stimulated neutrophil. Format: cell-based. The conditions noted are these: human neutrophil, C5a 3 nmol/L, luminol luminescence, 37° C.; read-out: IC50 value, inhibition of production of reactive oxygen species in C5a stimulated neutrophil. Here is the method: A neutrophil fraction was separately taken from human peripheral venous blood using Lympholyte-poly (Cedarlane), and suspended in Hank's Balanced Salt Solution (HBSS, GIBCO BRL) containing 1% fetal bovine serum (FBS) and 1 mmol/L luminol (Wako Pure Chemical Industries, Ltd.). Reactive oxygen species was measured using a luminometer (MicroLumat, Berthold) for 96-well plate. […] Then, 25 μL of C5a (final concentration 3 nmol/L) was added and luminescence produced by the reaction of the luminol and the reactive oxygen species was measured with the lapse of time for 15 min. The rate of inhibition (% inhibition) of the production of reactive oxygen species in C5a stimulated neutrophil by the test compound was calculated by the following formula, wherein the peak value of the production of reactive oxygen species derived by C5a without addition of the test compound is Max, the peak value of the production of reactive oxygen species without addition of the test compound and without C5a stimulation is Min, and the peak value of the production of reactive oxygen species derived by C5a with the addition of the test compound is Test. […]

One may read the AUC as concentration integrated over time. For orientation: IC50 means the point on the concentration scale where inhibition reaches its midpoint.

On to `CCn1cc(CN(C(=O)C2CCCc3c(O)cccc32)c2ccc(C(C)C)nc2)cn1` (racemic) [racemate of the compound of Example 3, N-[(1-ethyl-1H-pyrazol-4-yl)methyl]-5-hydroxy-N-(6-isopropylpyridin-3-yl)-1,2,3,4-tetrahydronaphthalene-1-carboxamide, reference compound], for which the “dissolution rate (comparison)” value in data set [1] is “slowest”. This compound also came in with a biological availability in data set [2] (female SD rats, oral 10 mg/kg vs intravenous 1 mg/kg) of 20%. The AUC in data set [2] (intravenous administration 1 mg/kg) was 289 ng·h/mL; in data set [2] (oral administration 10 mg/kg) it was 572 ng·h/mL. In addition, the 50% inhibitory concentration (IC50) in data set [3] amounted to 5.9 nM.

For the origin of these results see patent US20080194640A1, “Optically Active Tetrahydronaphthalene Derivative” (priority 2005, published 2008).
